Measured values taken from ChEMBL document CHEMBL4138306, “Potent Inhibitors of Hepatitis C Virus NS3 Protease: Employment of a Difluoromethyl Group as a Hydrogen-Bond Donor” (ACS Med Chem Lett, 2018).

Legend:
Hepatitis C virus = assay: Antiviral activity against HCV genotype 1b Con1 infected in human HuH7.5 cells assessed as inhibition of viral replication after 4 days by luciferase reporter gene assay; format: functional, organism-based, Hepacivirus hominis; settings: isolate Con1, Huh7.5, 96 h
[1] = biological target: Hepatitis C virus serine protease, NS3/NS4A (Hepatitis C virus, UniProt A3EZI9+D2K2A8)
Description: Inhibition of recombinant full length HCV genotype 1a NS3/4A protease (1027 to 1711 residues) expressed in Escherichia coli strain BL21 (DE3) using RET S1 as substrate incubated for 1 min followed by substrate addition measured after 15 mins by FRET assay

[2] = Half life in human liver microsomes by LC/MS/MS analysis; format: ADME, microsome
[3] = Oral bioavailability in Sprague-Dawley rat at 15 mg/kg, administered via gavage by LC/MS/MS analysis; format: ADME, organism-based; settings: in vivo
[4] = Clearance in Sprague-Dawley rat at 15 mg/kg, po administered via gavage or 5 mg/kg, iv administered as 10 mins infusion by LC/MS/MS analysis; format: ADME, organism-based; settings: in vivo
[5] = AUC in Sprague-Dawley rat at 15 mg/kg, po administered via gavage or 5 mg/kg, iv administered as 10 mins infusion by LC/MS/MS analysis; format: ADME, organism-based; settings: in vivo
[6] = Elimination half life in Sprague-Dawley rat at 15 mg/kg, po administered via gavage or 5 mg/kg, iv administered as 10 mins infusion by LC/MS/MS analysis; format: ADME, organism-based; settings: in vivo, read-out: beta t1/2 (converted)
[7] = Drug uptake in Sprague-Dawley rat liver at 15 mg/kg, po administered via gavage by LC/MS/MS analysis; format: ADME, organism-based; settings: in vivo, read-out: Drug uptake
[8] = Permeability from apical to basolateral side in human Caco2 cells; format: ADME, cell-based; settings: Caco-2, read-out: permeability
[9] = Permeability from basolateral to apical side in human Caco2 cells; format: ADME, cell-based; settings: Caco-2, read-out: permeability

Sequence of Hepatitis C virus serine protease, NS3/NS4A (D2K2A8 whole entry): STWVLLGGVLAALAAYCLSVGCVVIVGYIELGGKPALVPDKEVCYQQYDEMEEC
Sequence of Hepatitis C virus serine protease, NS3/NS4A (A3EZI9 whole entry): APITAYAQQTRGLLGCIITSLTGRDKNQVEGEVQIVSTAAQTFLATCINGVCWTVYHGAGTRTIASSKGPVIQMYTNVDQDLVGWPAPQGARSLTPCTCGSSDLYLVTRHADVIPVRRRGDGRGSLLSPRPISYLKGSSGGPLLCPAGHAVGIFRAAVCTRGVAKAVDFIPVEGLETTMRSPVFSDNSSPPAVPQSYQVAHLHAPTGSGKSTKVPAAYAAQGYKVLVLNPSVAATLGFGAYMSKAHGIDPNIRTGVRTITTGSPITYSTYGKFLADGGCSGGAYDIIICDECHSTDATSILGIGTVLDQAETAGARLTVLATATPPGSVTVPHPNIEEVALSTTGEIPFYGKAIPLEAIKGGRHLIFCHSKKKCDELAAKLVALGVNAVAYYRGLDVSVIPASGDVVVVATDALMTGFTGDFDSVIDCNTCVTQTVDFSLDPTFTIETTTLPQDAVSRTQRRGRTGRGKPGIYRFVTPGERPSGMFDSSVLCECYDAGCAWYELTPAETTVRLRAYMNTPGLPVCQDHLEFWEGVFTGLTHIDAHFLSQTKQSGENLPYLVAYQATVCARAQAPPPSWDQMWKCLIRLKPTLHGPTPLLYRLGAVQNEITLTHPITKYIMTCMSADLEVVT

Row | Structure (SMILES) | EC50 (Hepatitis C virus) [nM] | IC50 [1] [nM] | half-life [2] [min] | also measured
1 | COc1cnc(O[C@@H]2C[C@@H](C(=O)NC3(C(=O)NS(=O)(=O)C4CC4)CCC3)N(C(=O)[C@@H](NC(=O)OC(C)(C)C)C(C)(C)C)C2)c2cc(Cl)ccc12 | 1280 | 261 | – | –
2 | COc1cnc(O[C@@H]2C[C@@H](C(=O)NC(C)(C)C(=O)NS(=O)(=O)C3CC3)N(C(=O)[C@@H](NC(=O)OC(C)(C)C)C(C)(C)C)C2)c2cc(Cl)ccc12 | > 1000 | 2190 | – | –
3 | COc1cnc(O[C@@H]2C[C@@H](C(=O)N[C@]3(C(=O)NS(=O)(=O)C4CC4)C[C@H]3C)N(C(=O)[C@@H](NC(=O)OC(C)(C)C)C(C)(C)C)C2)c2cc(Cl)ccc12 | 64 | 13 | 96 | –
4 | C=CC[C@](C)(NC(=O)[C@@H]1C[C@@H](Oc2ncc(OC)c3ccc(Cl)cc23)CN1C(=O)[C@@H](NC(=O)OC(C)(C)C)C(C)(C)C)C(=O)NS(=O)(=O)C1CC1 | 23000 | 33000 | 53.5 | –
5 | COc1cnc(O[C@@H]2C[C@@H](C(=O)N[C@H](CC(F)F)C(=O)NS(=O)(=O)C3CC3)N(C(=O)[C@@H](NC(=O)OC(C)(C)C)C(C)(C)C)C2)c2cc(Cl)ccc12 | > 1000 | 2480 | – | –
6 | CC[C@@H](NC(=O)[C@@H]1C[C@@H](Oc2ncc(OC)c3ccc(Cl)cc23)CN1C(=O)[C@@H](NC(=O)OC(C)(C)C)C(C)(C)C)C(=O)NS(=O)(=O)C1CC1 | > 1000 | 7980 | – | –
7 | COc1cnc(O[C@@H]2C[C@@H](C(=O)N[C@]3(C(=O)NS(=O)(=O)C4CC4)C[C@H]3C(F)F)N(C(=O)[C@@H](NC(=O)OC(C)(C)C)C(C)(C)C)C2)c2cc(Cl)ccc12 | 7.6 to 8 | – | 120 | bioavailability [3]: 0.9%; clearance [4]: 58 mL/min/kg; AUC at 10 min [5]: 0.05 µM·h; half-life [6]: 156 min; concentration [7]: 0.27 µM; Papp A→B [8]: < 1.5 ×10⁻⁶ cm/s; Papp B→A [9]: 4.7 ×10⁻⁶ cm/s
8 | COc1cnc(O[C@@H]2C[C@@H](C(=O)N[C@]3(C(=O)NS(=O)(=O)C4CC4)C[C@H]3C(F)(F)F)N(C(=O)[C@@H](NC(=O)OC(C)(C)C)C(C)(C)C)C2)c2cc(Cl)ccc12 | 125 | 17 | 47 | –
9 | COc1cnc(O[C@@H]2C[C@@H](C(=O)N[C@@H](CC(F)F)C(=O)NS(=O)(=O)C3CC3)N(C(=O)[C@@H](NC(=O)OC(C)(C)C)C(C)(C)C)C2)c2cc(Cl)ccc12 | 509 | 976 | – | –
10 | CC[C@@H]1C[C@]1(NC(=O)[C@@H]1C[C@@H](Oc2ncc(OC)c3ccc(Cl)cc23)CN1C(=O)[C@@H](NC(=O)OC(C)(C)C)C(C)(C)C)C(=O)NS(=O)(=O)C1CC1 | 16 | 5 | – | AUC at 10 min [5]: 6.89 µM·h; concentration [7]: 40.3 µM
11 | COc1cnc(O[C@@H]2C[C@@H](C(=O)N[C@]3(C(=O)NS(=O)(=O)C4CC4)C[C@H]3CC(F)F)N(C(=O)[C@@H](NC(=O)OC(C)(C)C)C(C)(C)C)C2)c2cc(Cl)ccc12 | 31 | 14 | 200 | –
12 | C=C[C@@H]1C[C@]1(NC(=O)[C@@H]1C[C@@H](Oc2ncc(OC)c3ccc(Cl)cc23)CN1C(=O)[C@@H](NC(=O)OC(C)(C)C)C(C)(C)C)C(=O)NS(=O)(=O)C1CC1 | – | – | – | AUC at 10 min [5]: 1 µM·h
13 | COc1ccc2c(O[C@@H]3C[C@@H](C(=O)NC(CC(F)F)C(=O)NS(=O)(=O)C4CC4)N(C(=O)[C@@H](NC(=O)OC(C)(C)C)C(C)(C)C)C3)cc(-c3ccccc3)nc2c1 (stereo partly drawn) | – | > 1000 | – | –
14 | COc1cnc(O[C@@H]2C[C@@H](C(=O)N[C@]3(C(=O)NS(=O)(=O)C4CC4)C[C@H]3C3CC3)N(C(=O)[C@@H](NC(=O)OC(C)(C)C)C(C)(C)C)C2)c2cc(Cl)ccc12 | 18.3 | 6 | – | bioavailability [3]: 34 to 44.2%; clearance [4]: 5.2 mL/min/kg; AUC at 10 min [5]: 19.6 µM·h; half-life [6]: 360 to 600 min
15 | CC[C@H](NC(=O)[C@@H]1C[C@@H](Oc2ncc(OC)c3ccc(Cl)cc23)CN1C(=O)[C@@H](NC(=O)OC(C)(C)C)C(C)(C)C)C(=O)NS(=O)(=O)C1CC1 | > 1000 | 3080 | – | –
16 | COc1cnc(O[C@@H]2C[C@@H](C(=O)NC3(C(=O)NS(=O)(=O)C4CC4)CC3)N(C(=O)[C@@H](NC(=O)OC(C)(C)C)C(C)(C)C)C2)c2cc(Cl)ccc12 | 336 | 40 | 120 | –
